Read-outs that look alike come from different tables or passages of the source.
How the values were obtained:
[1] = from CC(C)(C)OC(=O)N[C@H]1CCCN[C@H]1COC1CCC(c2ccccc2CCC(=O)O)CC1; amide bond; 13-membered ring; HATU/DIEA; MeCN; 0.36 mM; 2.0 h
[2] = amide bond, HATU/DIEA
[3] = test system: Sprague-Dawley rats; test: Assessment of wake promotion in Sprague-Dawley rats (EEG/EMG); format: in vivo; conditions: Rattus norvegicus; PO, 3 mpk, male Sprague-Dawley rats, dosed at ZT5, 6-hour post-dose period; read-out: Mean cortical activation time (% vehicle treatment)
Method: Wake promotion was assessed using electroencephalography (EEG) and electromyography (EMG) in adult male Sprague-Dawley rats (350-600 g). All rats (Charles River Laboratories, Raleigh, NC, USA) were intraperitoneally implanted with telemetry devices (F50-EEE, Data Sciences International Inc., M/N, USA) under isoflurane anesthesia. For EEG, stainless steel screws were implanted over frontal cortex and parietal cortex, and reference screws were placed over cerebellum. Additionally, an electrode was placed in neck muscle for EMG. Rats were given carprofen post-surgery and underwent a 7 to 10-day recovery period. Rats habituated to the experimental room for 7 days and were maintained on a 12-hour light-dark cycle.
EEG and EMG data were recorded using the DSI telemetry system and Ponemah software (Data Sciences International Inc., MN, USA). Sleep-wake stages were scored both manually and with Somnivore, a supervised machine learning software platform, in 10 second epocs. Records were visually inspected as needed post-processing.
All test compounds were dissolved in 5% DMSO and suspended in 95% saline with 0.5% methylcellulose and 0.5% tween. […] Unless otherwise indicated, all compounds were dosed orally. Recordings for each rat were initiated immediately after dosing and lasted for 6 hours post-dose.
Two key endpoints include wakefulness time and cortical activation time. Wakefulness time is derived from the sleep-wake stage analysis. Cortical activation time is based on the duration in which frontal gamma oscillatory activity (30-100 Hz), a key feature of wakefulness, was elevated relative to a pre-treatment baseline. Mean cortical activation time was computed relative to vehicle treatment for the 6-hour post-dose period.

[4] = test system: human hepatocytes; test: Hepatocytes stability assay (human hepatocytes); format: in vitro ADME; conditions: for Extraction Ratio (ER): scaled hepatic clearance divided by liver blood flow, fu assumed unity
In short: (§1)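 Cryopreserved pooled (50 donors, mixed gender) human hepatocytes at 1×10^6 cells/mL in Krebs-Henseleit buffer with 1 μM compound (0.1% DMSO), 37 degrees C, sampled 0–240 min. Parent depletion by LC-MS/MS; first-order fit gave T1/2 and CLint, scaled to hepatic clearance via well-stirred model (fu assumed 1); extraction ratio = CL,hep/liver blood flow.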

[5] = Hepatocytes stability assay (human hepatocytes); format: in vitro ADME; conditions: both sexes, cryopreserved hepatocytes, 1 μM test compound, 1×10^6 cell/mL, 37 degrees C, read-out: CLint (μL/min/million cells)
In short: as §1

[6] = test system: MDR1; test: MDCK-MDR1 permeability assay; format: in vitro ADME; conditions: dog; for Papp A→B at 2 h, 3 μM: MDCK-MDR1, MDCK-MDR1 cells, apical to basolateral, 3 μM test compound, 2 hours at 37 degrees C; for efflux ratio at 2 h, 3 μM: MDCK-MDR1, Papp (basolateral to apical) divided by Papp (apical to basolateral), MDCK-MDR1 cells, read-out: Efflux ratio (ER)
Method: (§2) The bidirectional permeability (Apical to Basal and Basal to Apical directions) of test compounds in MDCK-MIDR1 cells were evaluated using MDCK-MIDR1 cells seeded in Solvo PreadyPort™ MIDCK 96-well plate. Once the plate was received from ReadyCell (Barcelona, Spain), it was treated as per PreadyPort™ user's manual.
(§3) For the Apical to Basolateral (A→B) permeability, 80 μL of test compound (3 μM) co-dosed with LY (Lucifer Yellow) (100 μM) in HBSS (Hank's Balanced Salt Solution) assay buffer was added to the donor side (A) while 250 μL of HBSS buffer was added to the receiver side (B). For the Basolateral to Apical (B→A) permeability, 255 μL of test compound (3 μM) in HBSS assay buffer was added to the donor side (B) while 75 μL of HBSS buffer containing LY (100 μM) was added to the receiver side (A).
(§4) The plate was placed in an incubator set at 37 degrees C. After 10 minutes of pre-warming, 5 μL aliquot was taken from donor compartment and set aside as the dosing solution. The MDCK-MDR1 incubation plate was placed back into the incubator for 2 hours of incubation at 37 degrees C. After 2 hours of incubation, 25 μL and 5 μL aliquots were removed from the receiver and donor sides, respectively. To the 5 μL aliquots taken from the donor sides (before and after a 2-hour incubation) were diluted with 20 μL of the HBSS buffer. All samples were mixed with 150 μL with acetonitrile containing internal standard (IS) and 200 μL water, and analyzed by LC-MS/MS.
(§5) The apparent permeability (Papp) was calculated using the following formula: Papp=dQ/dt×1/A×C0 where: • dQ/dt: amount of translocated material over incubation time (nmol/s) • A: area of insert (0.14 cm^2 for PreadyPort™ MDR1-96) • C0: initial concentration of product applied in apical (A→B) or basal (B→A) compartment (nmol/mL)
(§6) The efflux ratio (ER) was measured by dividing the Papp (basolateral to apical direction) by Papp (apical to basolateral direction). It is a general measure of the involvement of active processes. An ER>2 is considered positive for active transport.
(§7) The data reported in Table 3 were obtained according to the MDCK-MIDR1 permeability assay described above.

[7] = biological target: T1, human orexin-2 receptor (OX2R) (Homo sapiens, UniProt O43614); test: Human OX2R IP1 assay; format: cell-based; conditions: T-Rex CHO cells stably overexpressing human OX2R, IP1 accumulation, 1 hr at 37 degrees C; mean EC50; ∧ = racemic mixture
T1 construct: expressed in transfected cells
T1 sequence (O43614 1-444): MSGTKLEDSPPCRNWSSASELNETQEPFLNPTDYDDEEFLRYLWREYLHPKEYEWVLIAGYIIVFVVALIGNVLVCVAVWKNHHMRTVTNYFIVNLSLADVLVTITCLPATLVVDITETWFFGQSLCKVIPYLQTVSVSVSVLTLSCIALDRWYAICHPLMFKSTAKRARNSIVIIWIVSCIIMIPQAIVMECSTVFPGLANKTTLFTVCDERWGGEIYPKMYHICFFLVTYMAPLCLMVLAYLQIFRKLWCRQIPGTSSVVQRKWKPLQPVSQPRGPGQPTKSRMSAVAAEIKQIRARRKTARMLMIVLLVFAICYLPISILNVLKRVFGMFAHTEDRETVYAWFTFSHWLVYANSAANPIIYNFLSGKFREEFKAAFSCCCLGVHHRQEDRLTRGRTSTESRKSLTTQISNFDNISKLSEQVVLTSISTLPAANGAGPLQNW
Method: T-Rex CHO cells stably overexpressing the human orexin-2 receptor (OX2R) were induced overnight with 1 μg/mL of doxycycline in a T225 flask. 24 hours post induction, cells were lifted with accutase and plated into a 384-well proxy plate at 30,000 cells/well. Cells were then treated with different test compounds in 1× stimulation buffer containing 10 mM Hepes, 1 mM CaCl2), 0.5 mM MgCl2, 4.2 mM KCl, 146 mM NaCl, 5.5 mM glucose, and 50 mM LiCl, pH 7.4, for 1 hr at 37 degrees C. Following incubation, the reaction was terminated by the addition of detection mix, which is composed of IP1-d2 and anti-IP1-cryptate diluted in lysis buffer as well as 1× stimulation buffer. The plates were allowed to incubate for 1 hour at room temperature and were then read in the EnVision® multimode plate reader, measuring inositol phosphate levels.
Cisbio IP1 is a cell-based functional assay quantifying the accumulation of inositol monophosphate (IP), a metabolite released as a result of orexin 2 receptor activation through the phospholipase C-Gq signaling pathway. This is a competitive immunoassay in which the IP1 produced by the cells upon receptor activation competes with the IP1 analog coupled to the d2 fluorophore (acceptor) for binding to an anti-IP1 monoclonal antibody labeled with Eu cryptate (donor). The measured HTRF-FRET based signal is inversely proportional to the IP1 concentration produced.
The EC50 values reported in Table 2 were obtained according to the human OX2R IP1 assay described above. Data are the mean EC50 values ±S.E.M. The compound methyl (2R,3S)-3-((methylsulfonyl)amino)-2-(((cis-4-phenylcyclohexyl)oxy)methyl)-piperidine-1-carboxylate is a reference compound which is disclosed in Example 5 of PCT publication no. WO2017/135306.

[8] = test system: MDCK-MDR1 cells; test: MDCK-MDR1 permeability assay; format: in vitro ADME; conditions: MDCK-MDR1 cells; for Papp A→B (10^−6 cm/s): apical to basolateral, 3 μM test compound, 2 hours at 37 degrees C
Method: as §2, §3, §4, §5, §6, §7

[9] = amide bond, 13-membered ring

| Extraction Ratio (ER) [4] | hepatocyte CLint at 1 μM [5] [µL/min/1e6 cells] | Papp A→B at 2 h, 3 μM [6] [×10⁻⁶ cm/s] | efflux ratio at 2 h, 3 μM [6] | Compound | response vs control in vivo at 3 mg/kg [3] [%] | also measured |
| --- | --- | --- | --- | --- | --- | --- |
|  |  |  |  | CC(C)(C)OC(=O)N[C@H]1CCCN2C(=O)CCc3ccccc3C3CCC(CC3)OC[C@@H]12 |  | ring closure, conversion [1]: 40%; ring closure, yield after HPLC ([2]; from CC(C)(C)OC(=O)N[C@H]1CCCN[C@H]1COC1CCC(c2ccccc2CCC(=O)O)CC1, 13-membered ring, MeCN, 0.36 mM, 2.0 h): 19% |
| 0.51 | 6.9 | 0.31 | 58 | CS(=O)(=O)N[C@H]1CCCN2C(=O)COc3ncccc3C3CCC(CC3)OCC12 (stereo partly shown) [Compound 46] | 157 |  |
| <0.22 |  |  |  | CS(=O)(=O)N[C@H]1CCCN2C(=O)COc3nnccc3[C@H]3CC[C@H](CC3)OC[C@@H]12 [Compound 66] |  | CLint (μL/min/million cells) ([4]; 1 μM test compound, 1×10^6 cell/mL, 37 degrees C): <1.9 μL/min/million cells; EC50 [7]: < 100 nM; Papp A→B (10^−6 cm/s) [8]: <0.047 10^−6 cm/s; Efflux ratio (ER) ([8]; Papp (basolateral to apical) divided by Papp (apical to basolateral), 3 μM): >9.5 |
| <0.22 | < 1.9 |  | 5.2 | CS(=O)(=O)N[C@H]1CCCN2C(=O)COc3nnccc3C3CCC(CC3)OCC12 (stereo partly shown) [Compound 56] |  | Papp A→B (10^−6 cm/s) [8]: 0.13 10^−6 cm/s |
| 0.67 | 13 | 0.89 | 39 | CS(=O)(=O)N[C@H]1CCCN2C(=O)COc3ccccc3C3CCC(CC3)OCC12 (stereo partly shown) [Compound 2] | 190 |  |
| <0.22 | < 1.9 | 0.092 | 77 | CS(=O)(=O)N[C@H]1CCCN2C(=O)COc3nccnc3C3CCC(CC3)OCC12 (stereo partly shown) [Compound 55] | 145 |  |
| 0.66 | 13 | 2.3 | 6.2 | CS(=O)(=O)N[C@H]1CCCN2C(=O)COc3c(F)cc(F)cc3C3CCC(CC3)OCC12 (stereo partly shown) [Compound 12] | 236 |  |
|  |  |  |  | CC(C)(C)OC(=O)N[C@H]1CCCN2C(=O)CCOc3ccccc3C3CCC(CC3)OC[C@@H]12 |  | ring closure, yield after HPLC ([2]; from CC(C)(C)OC(=O)N[C@H]1CCCN[C@H]1COC1CCC(c2ccccc2OCCC(=O)O)CC1, 14-membered ring, MeCN, 7.4 mM, 18.0 h): 80.3% |
|  |  |  |  | tert-butyl ((2^1S,2^4S,5^2R,5^3S)-6-oxo-3,11-dioxa-5(2,1)-piperidina-1(1,2)-benzena-2(1,4)-cyclohexanacycloundecaphane-5^3-yl)carbamate |  | ring closure, yield after HPLC ([2]; 16-membered ring, DMF/MeCN 1:2, 16.3 mM, 25.0 °C): 88.1% |
|  |  |  |  | CC(C)(C)OC(=O)NC1CCCN2C(=O)COc3cnccc3C3CCC(CC3)OCC12 (stereo not shown) |  | ring closure, isolated yield ([9]; from CC(C)(C)OC(=O)NC1CCCNC1COC1CCC(c2ccncc2OCC(=O)O)CC1, HATU/DIEA, MeCN, 0.22 mM, 2.0 h): 23.4% |
|  |  |  |  | CC(C)(C)OC(=O)N([C@H]1CCN2C(=O)COc3ncccc3C3CCC(CC3)OC[C@@H]12)S(C)(=O)=O |  | ring closure, isolated yield ([9]; from CC(C)(C)OC(=O)N([C@H]1CCN[C@H]1COC1CCC(c2cccnc2OCC(=O)O)CC1)S(C)(=O)=O, HATU/DIEA, MeCN, 9.5 mM, 2.0 h): 41.4% |
| 0.78 | 24 | 14 | 2.2 | CS(=O)(=O)N[C@H]1CCN2C(=O)COc3ccccc3C3CCC(CC3)OCC12 (stereo partly shown) [Compound 7] | 165 |  |
|  |  |  |  | COc1ccc(CNC2CCN3C(=O)C(F)(F)Oc4c(F)cc(F)cc4C4CCC(CC4)OCC23)cc1 (stereo not shown) |  | ring closure, isolated yield ([9]; from COc1ccc(CNC2CCNC2COC2CCC(c3cc(F)cc(F)c3OC(F)(F)C(=O)O)CC2)cc1, HATU/diisopropylamine, DCM/MeCN 1:1, 18.5 mM, 3.0 h): 39.3% |
| 0.41 | 4.6 | 0.59 | 21 | CS(=O)(=O)N[C@H]1CCCN2C(=O)COc3ccc(Cl)cc3C3CCC(CC3)OCC12 (stereo partly shown) [Compound 51] | 166 |  |
